How the values were obtained:
Assay in all cases: fitness (endpoint OD595 vs no drug) (fraction); higher = more growth
[1] = tested on: B. subtilis 168
Procedure, shortened: (§1)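 In 384-well plates at 37 °C, cultures began at OD595 0.01 in 30 µl, with 55 µl used for S. pneumoniae. OD595 readings every 30 min for 14 h were corrected by the first reading. Fitness divides the stationary-phase transition optical density by the robust mean of no-drug control wells. The result is capped at 1.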

[2] = tested on: S. aureus DSM 20231
Procedure, shortened: as §1

[3] = tested on: S. aureus Newman
Procedure, shortened: as §1
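Also: OD595 on entry to stationary phase over no-drug wells; at most 1.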

CO/N=C(\C(=O)N[C@@H]1C(=O)N2C(C(=O)O)=C(COC(C)=O)CS[C@H]12)c1csc(N)n1 [Cefotaxime] + N[C@@H]1CONC1=O [Cycloserine D]
fitness, [1], one replicate
Conditions | first compound 0.00775 µg/mL | first compound 0.0155 µg/mL | first compound 0.031 µg/mL | first compound 0.0625 µg/mL | first compound 0.125 µg/mL | first compound 0.25 µg/mL
partner 0.125 µg/mL | 0.876 | 0.666 | 0.554 | 0.498 | 0.353 | 0.296
partner 0.25 µg/mL | 0.888 | 0.756 | 0.561 | 0.524 | 0.401 | 0.31
partner 0.5 µg/mL | 0.802 | 0.733 | 0.566 | 0.477 | 0.363 | 0.267

Conditions | fitness
[1], first compound 0.5 µg/mL, partner 0.125 µg/mL | 0.333
[1], first compound 0.5 µg/mL, partner 0.25 µg/mL | 0.28
[1], first compound 1 µg/mL, partner 0.125 µg/mL | 0.162
[1], first compound 1 µg/mL, partner 0.25 µg/mL | 0.169
[1], first compound 1 µg/mL, partner 0.5 µg/mL | 0.162
[1], first compound 2 µg/mL, partner 0.125 µg/mL | 0.16
[1], first compound 2 µg/mL, partner 0.25 µg/mL | 0.182
[1], first compound 2 µg/mL, partner 0.5 µg/mL | 0.15
[2], first compound 0.039 µg/mL, partner 0.375 µg/mL | 0.822
[2], first compound 0.039 µg/mL, partner 0.75 µg/mL | 0.822
[2], first compound 0.039 µg/mL, partner 1.5 µg/mL | 0.835
[2], first compound 0.078 µg/mL, partner 0.375 µg/mL | 0.789
[2], first compound 0.078 µg/mL, partner 0.75 µg/mL | 0.853
[2], first compound 0.078 µg/mL, partner 1.5 µg/mL | 0.748
[2], first compound 0.156 µg/mL, partner 0.375 µg/mL | 0.736
[2], first compound 0.156 µg/mL, partner 0.75 µg/mL | 0.772
[2], first compound 0.156 µg/mL, partner 1.5 µg/mL | 0.696
[2], first compound 0.312 µg/mL, partner 0.375 µg/mL | 0.652
[2], first compound 0.312 µg/mL, partner 0.75 µg/mL | 0.638
[2], first compound 0.312 µg/mL, partner 1.5 µg/mL | 0.584
[3], first compound 0.078 µg/mL, partner 0.375 µg/mL | 0.736
[3], first compound 0.078 µg/mL, partner 0.75 µg/mL | 0.828
[3], first compound 0.078 µg/mL, partner 1.5 µg/mL | 0.785
[3], first compound 0.156 µg/mL, partner 0.375 µg/mL | 0.601
[3], first compound 0.156 µg/mL, partner 0.75 µg/mL | 0.604
[3], first compound 0.156 µg/mL, partner 1.5 µg/mL | 0.629
[3], first compound 0.312 µg/mL, partner 0.375 µg/mL | 0.345
[3], first compound 0.312 µg/mL, partner 0.75 µg/mL | 0.326
[3], first compound 0.312 µg/mL, partner 1.5 µg/mL | 0.305
[3], first compound 0.625 µg/mL, partner 0.375 µg/mL | 0.186
[3], first compound 0.625 µg/mL, partner 0.75 µg/mL | 0.121
[3], first compound 0.625 µg/mL, partner 1.5 µg/mL | 0.0813
[3], first compound 1.25 µg/mL, partner 0.375 µg/mL | 0.0332
[3], first compound 1.25 µg/mL, partner 0.75 µg/mL | 0.0383
[3], first compound 1.25 µg/mL, partner 1.5 µg/mL | 0.0209
[3], first compound 2.5 µg/mL, partner 0.375 µg/mL | 0.0595
[3], first compound 2.5 µg/mL, partner 0.75 µg/mL | 0.0506
[3], first compound 2.5 µg/mL, partner 1.5 µg/mL | 0.0484
